# In article PMC12259270, “Sensory neuron–expressed FGF13 controls nociceptive signaling in diabetic neuropathy models” (The Journal of Clinical Investigation, 2025):
# Residues, ends and D or L forms follow the SMILES beside them. *: point of attachment. Cbz = O=C(OCc1ccccc1)*; OtBu = CC(C)(C)O*
# Biological target: T1, human Nav1.7 (Homo sapiens, UniProt Q15858)
# T1 construct: expressed in transfected cells; host or cells: HEK293 stably expressing human Nav1.7
# Assay: Whole-cell patch-clamp, HEK293 cells stably expressing human Nav1.7 with GFP or FGF13-GFP
# Assay type: cell-based
# Parameters: Nav1.7 repriming time course, Mean / Figure 4I, Mean versus Time (ms): unit not given here
# Conditions: for use dependency, normalized INa amplitude, Mean: Fig 1I; for long-term inactivation, Mean: Fig 1J; for Nav1.7 repriming time course, Mean: Fig 1K; for Nav1.7 repriming time course, Mean / Time constant of repriming, Mean: PW164; for Time constant of repriming, Mean: Fig 1L
# Method: Whole-cell patch clamp electrophysiology
# HEK293-Nav1.7 cells, HEK293 stably expressing human Nav1.6 (HEK-Nav1.6), HEK293 stably expressing human Nav1.5 (HEK-Nav1.5), human hIPSC-derived sensory neurons (RealDRGTM from Anatomic Incorporated 1020F1-1M) and donor-derived DRG neurons were plated at low density on glass coverslips and processed for whole-cell patch clamp electrophysiology in voltage-clamp and/or current clamp mode. Whole-cell patch electrophysiological experiments were conducted following previously published studies (26). Current densities were obtained by dividing INa amplitude by membrane capacitance. Current –voltage relationships were generated by plotting current density as a function of the […]. Conductance (G Na) was calculated by the […]
# where INa is the current amplitude at voltage Vm, and Erev is the Na+ reversal potential.
# Activation curves were derived by plotting normalized GNa as a function of test potential and fitted using […]
# Where GNa,Max is the maximum conductance, Va is the membrane potential of half-maximal activation, Em is the membrane voltage and k is the slope factor. For steady -state inactivation, normalized current amplitude (INa/INa,Max) at the test potential was plotted as a function of prepulse potential (Vm) and fitted using the […]
# Where Vh is the potential of half-maximal inactivation, E m is the membrane voltage, and k is the slope factor.
# Transient INa inactivation decay was estimated with the standard exponential equation. Inactivation time constant (tau, τ) was fitted with the following equation: […]
# where I(t) is the amplitude of the current at time t and Iss is the steady-state current during a single voltage-step.
# The goodness of fitting was determined by correlation coefficient (R), and the cutoff of R was set at 0.85. To observe effects on long-term inactivation (LTI), a four-step protocol was employed during which cells were subjected to four 0 mV, 20 ms depolarization pulses separated by −90 mV, 40 ms recovery intervals. To control for various cell sizes, the current densities were calculated by dividing INa peak current amplitude/membrane capacitance (Cm). To represent the fraction of channels entering into LTI, the peak INa observed during depolarization cycles 2-4 was normalized to the peak INa observed during depolarization cycle 1 (INa/INa,Cycle 1) and plotted as a function of the depolarization cycle.
# The cumulative (frequency-dependent) use-dependency was determined by applying 20 pulses with a depolarization to −10 mV (50 ms duration) and 50 ms recovery intervals with a train of 20 pulses at 10 Hz from a holding potential at -70 mV. The current pulses were normalized to the first reco rded pulse and the currents at the 2nd to 20th pulses were compared. The same train was used to record use-dependency at various frequencies […]
# The rate of recovery from inactivation was recorded at -80 mV with a standard repriming voltage protocol.
# The cells were prepulsed to -20 mV for 20 ms to inactivate all currents, then driven back to the recovery potential (Vrec) for increasing recovery durations before the test pulse to 0 mV. The maximum pulse rate was 0.5 Hz. The […]
# follows previous publications (16). The time constants were estimated from single exponential decay to time courses measured at recovery potentials ranging from -140 to -60 mV with the protocol as mentioned above.
# Electrophysiological Recordings
# HEK293 cells: Electrophysiological recordings in HEK293 stably expressing Nav1.7 (HEK-Nav1.7), Nav1.5 (HEK-Nav1.5) or Nav1.6 (HEK-Nav1.6) were performed at room temperature using a MultiClamp 700B or an Axopatch 200B amplifier (Molecular Devices) after incubating coverslips for 60 minutes either with 0.1% DMSO or 50 μM PW164 or ZL192 in the extracellular solution. The composition of recording solutions consisted of the […]
# following salts: extracellular (mM): 140 NaCl, 3 KCl, 1 MgCl2, 1 CaCl2, 10 HEPES, 10 glucose, pH 7.3; […]
# intracellular (mM): 130 CH3O3 SCs, 1 EGTA, 10 NaCl, 10 HEPES, pH 7.3. […]
# T1 sequence (Q92913 1-192 partner limits assumed): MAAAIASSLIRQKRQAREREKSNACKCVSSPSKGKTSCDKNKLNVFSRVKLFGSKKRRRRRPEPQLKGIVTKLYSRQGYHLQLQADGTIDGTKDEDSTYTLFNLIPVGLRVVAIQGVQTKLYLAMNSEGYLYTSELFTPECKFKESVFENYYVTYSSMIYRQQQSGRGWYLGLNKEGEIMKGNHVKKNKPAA
# T1 sequence (Q15858 1-1977 isoform Q15858-3): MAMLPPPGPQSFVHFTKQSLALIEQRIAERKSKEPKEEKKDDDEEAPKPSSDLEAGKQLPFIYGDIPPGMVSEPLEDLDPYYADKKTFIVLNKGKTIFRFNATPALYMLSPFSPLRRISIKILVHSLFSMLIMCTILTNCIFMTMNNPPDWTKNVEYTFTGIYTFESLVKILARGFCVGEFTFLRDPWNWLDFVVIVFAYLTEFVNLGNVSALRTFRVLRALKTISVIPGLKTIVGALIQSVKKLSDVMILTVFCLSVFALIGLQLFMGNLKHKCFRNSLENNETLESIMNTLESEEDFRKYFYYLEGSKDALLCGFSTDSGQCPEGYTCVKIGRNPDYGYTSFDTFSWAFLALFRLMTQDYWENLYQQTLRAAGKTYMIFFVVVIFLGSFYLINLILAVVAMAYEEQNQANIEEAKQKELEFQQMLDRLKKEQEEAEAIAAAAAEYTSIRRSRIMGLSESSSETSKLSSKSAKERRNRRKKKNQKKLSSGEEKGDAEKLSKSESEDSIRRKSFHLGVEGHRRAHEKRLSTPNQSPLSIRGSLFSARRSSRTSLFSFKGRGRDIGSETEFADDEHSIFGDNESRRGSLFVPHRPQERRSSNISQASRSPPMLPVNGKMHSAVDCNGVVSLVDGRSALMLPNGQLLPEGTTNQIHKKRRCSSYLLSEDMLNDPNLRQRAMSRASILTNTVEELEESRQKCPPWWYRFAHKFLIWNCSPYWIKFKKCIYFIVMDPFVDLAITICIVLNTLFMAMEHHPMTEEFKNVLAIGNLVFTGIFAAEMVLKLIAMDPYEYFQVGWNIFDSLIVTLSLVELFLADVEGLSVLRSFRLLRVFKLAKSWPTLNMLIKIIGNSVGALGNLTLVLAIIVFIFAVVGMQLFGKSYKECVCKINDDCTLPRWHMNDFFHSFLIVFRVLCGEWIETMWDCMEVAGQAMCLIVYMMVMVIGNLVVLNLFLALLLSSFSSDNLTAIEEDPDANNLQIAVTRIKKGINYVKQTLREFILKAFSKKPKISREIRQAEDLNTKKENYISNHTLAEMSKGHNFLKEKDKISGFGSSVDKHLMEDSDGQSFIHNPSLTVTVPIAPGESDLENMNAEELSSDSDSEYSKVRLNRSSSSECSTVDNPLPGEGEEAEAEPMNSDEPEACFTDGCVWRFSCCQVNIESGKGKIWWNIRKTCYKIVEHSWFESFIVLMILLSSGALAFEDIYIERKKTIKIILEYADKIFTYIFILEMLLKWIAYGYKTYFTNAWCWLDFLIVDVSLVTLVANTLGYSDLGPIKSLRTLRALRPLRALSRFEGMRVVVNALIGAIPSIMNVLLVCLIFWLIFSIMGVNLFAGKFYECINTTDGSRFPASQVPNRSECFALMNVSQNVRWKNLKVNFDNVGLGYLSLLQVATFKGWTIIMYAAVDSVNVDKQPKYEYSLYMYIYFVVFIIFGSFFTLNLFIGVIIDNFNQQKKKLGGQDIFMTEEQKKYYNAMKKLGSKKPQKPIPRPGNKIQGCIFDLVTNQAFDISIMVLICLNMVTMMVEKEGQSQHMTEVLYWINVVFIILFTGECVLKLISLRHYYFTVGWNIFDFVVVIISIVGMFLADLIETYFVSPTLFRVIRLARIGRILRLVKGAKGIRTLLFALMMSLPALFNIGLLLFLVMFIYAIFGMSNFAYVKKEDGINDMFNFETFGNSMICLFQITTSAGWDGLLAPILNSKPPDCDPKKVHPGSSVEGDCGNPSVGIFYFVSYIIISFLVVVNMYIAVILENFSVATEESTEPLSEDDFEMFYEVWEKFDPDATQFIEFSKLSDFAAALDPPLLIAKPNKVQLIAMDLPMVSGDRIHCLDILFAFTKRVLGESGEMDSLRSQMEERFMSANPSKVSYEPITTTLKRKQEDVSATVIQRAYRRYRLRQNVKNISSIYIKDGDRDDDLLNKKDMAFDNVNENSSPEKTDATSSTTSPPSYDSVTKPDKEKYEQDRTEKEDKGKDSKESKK
compound,measurement,setting,value
COC(=O)[C@@H](NC(=O)[C@H](CCC(=O)OC(C)(C)C)NC(=O)[C@H](CC(C)C)NC(=O)[C@@H]1CCCN1C(=O)OCc1ccccc1)C(C)C [PW164] (Cbz-PLE(OtBu)V-OMe),"use dependency, normalized INa amplitude, Mean","FGF13-GFP + PW164, Pulse 1",1
same,"use dependency, normalized INa amplitude, Mean","FGF13-GFP + PW164, Pulse 3",0.7166
same,"use dependency, normalized INa amplitude, Mean","FGF13-GFP + PW164, Pulse 6",0.6629
same,"use dependency, normalized INa amplitude, Mean","FGF13-GFP + PW164, Pulse 10",0.6585
same,"use dependency, normalized INa amplitude, Mean","FGF13-GFP + PW164, Pulse 15",0.6477
same,"use dependency, normalized INa amplitude, Mean","FGF13-GFP + PW164, Pulse 20",0.6421
same,"use dependency, normalized INa amplitude, Mean","GFP + PW164, Pulse 1",1
same,"use dependency, normalized INa amplitude, Mean","GFP + PW164, Pulse 3",0.9017
same,"use dependency, normalized INa amplitude, Mean","GFP + PW164, Pulse 6",0.9079
same,"use dependency, normalized INa amplitude, Mean","GFP + PW164, Pulse 10",0.9071
same,"use dependency, normalized INa amplitude, Mean","GFP + PW164, Pulse 15",0.9039
same,"use dependency, normalized INa amplitude, Mean","GFP + PW164, Pulse 20",0.8633
same,"long-term inactivation, Mean","FGF13-GFP + PW164, Pulse 1",100
same,"long-term inactivation, Mean","FGF13-GFP + PW164, Pulse 2",69.7175
same,"long-term inactivation, Mean","FGF13-GFP + PW164, Pulse 3",60.3266
same,"long-term inactivation, Mean","FGF13-GFP + PW164, Pulse 4",59.3421
same,"long-term inactivation, Mean","GFP + PW164, Pulse 1",100
same,"long-term inactivation, Mean","GFP + PW164, Pulse 2",67.9412
same,"long-term inactivation, Mean","GFP + PW164, Pulse 3",62.3462
same,"long-term inactivation, Mean","GFP + PW164, Pulse 4",60.9288
same,"Nav1.7 repriming time course, Mean","Nav1.7 + FGF13-GFP, Time (ms) 2",-1.745
same,"Nav1.7 repriming time course, Mean","Nav1.7 + FGF13-GFP, Time (ms) 5",-3.217
same,"Nav1.7 repriming time course, Mean","Nav1.7 + FGF13-GFP, Time (ms) 9",-6.791
same,"Nav1.7 repriming time course, Mean","Nav1.7 + FGF13-GFP, Time (ms) 17",-10.2331
same,"Nav1.7 repriming time course, Mean","Nav1.7 + FGF13-GFP, Time (ms) 33",-13.6908
same,"Nav1.7 repriming time course, Mean","Nav1.7 + FGF13-GFP, Time (ms) 65",-18.7676
same,"Nav1.7 repriming time course, Mean","Nav1.7 + FGF13-GFP, Time (ms) 129",-22.4288
same,"Nav1.7 repriming time course, Mean","Nav1.7 + FGF13-GFP, Time (ms) 257",-26.5719
same,"Nav1.7 repriming time course, Mean","Nav1.7 + FGF13-GFP, Time (ms) 513",-28.3171
same,"Nav1.7 repriming time course, Mean","Nav1.7 + FGF13-GFP, Time (ms) 1025",-29.4614
same,"Nav1.7 repriming time course, Mean","Nav1.7 + FGF13-GFP, Time (ms) 2000",-30.5045
same,"Nav1.7 repriming time course, Mean","Nav1.7 + GFP, Time (ms) 2",-0.8155
same,"Nav1.7 repriming time course, Mean","Nav1.7 + GFP, Time (ms) 5",-1.631
same,"Nav1.7 repriming time course, Mean","Nav1.7 + GFP, Time (ms) 9",-4.0928
same,"Nav1.7 repriming time course, Mean","Nav1.7 + GFP, Time (ms) 17",-9.754
same,"Nav1.7 repriming time course, Mean","Nav1.7 + GFP, Time (ms) 33",-14.6809
same,"Nav1.7 repriming time course, Mean","Nav1.7 + GFP, Time (ms) 65",-21.498
same,"Nav1.7 repriming time course, Mean","Nav1.7 + GFP, Time (ms) 129",-26.6853
same,"Nav1.7 repriming time course, Mean","Nav1.7 + GFP, Time (ms) 257",-32.6576
same,"Nav1.7 repriming time course, Mean","Nav1.7 + GFP, Time (ms) 513",-33.7798
same,"Nav1.7 repriming time course, Mean","Nav1.7 + GFP, Time (ms) 1025",-35.5926
same,"Nav1.7 repriming time course, Mean","Nav1.7 + GFP, Time (ms) 2000",-36.9364
same,"Time constant of repriming, Mean","Nav1.7 + FGF13-GFP, recovery potential -60",51.44 ms
same,"Time constant of repriming, Mean","Nav1.7 + FGF13-GFP, recovery potential -70",60.77 ms
same,"Time constant of repriming, Mean","Nav1.7 + FGF13-GFP, recovery potential -80",68.88 ms
same,"Time constant of repriming, Mean","Nav1.7 + FGF13-GFP, recovery potential -90",64.58 ms
